Test system: K-562 leukemia growth, % test/control
Assay: Anticancer human tumor K-562 cell line growth inhibition;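 note: spheroids exposed to compounds for 7 days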;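 for viability, T/C: 100% = DMSO vehicle wells and lower values mean fewer viable cells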
Conditions: spheroids with HUVEC and MSC; for IC50: curve of first compound; for viability, T/C: stronger effect = lower value
Method in brief: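 Multicellular complex spheroids of tumor cells with human endothelial cells (HUVEC) and mesenchymal stem cells; the LSD1 inhibitor iadademstat was combined with standard-of-care or investigational agents. Top concentration at or near clinical Cmax, half-log dilutions; final DMSO ≤0.25%.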

Question: What does the source list for `CC1(C)CCC(CN2CCN(c3ccc(C(=O)NS(=O)(=O)c4ccc(NCC5CCOCC5)c([N+](=O)[O-])c4)c(Oc4cnc5[nH]ccc5c4)c3)CC2)=C(c2ccc(Cl)cc2)C1` + NC1CC1c1ccc(-c2cccc(O)c2)cc1?
Answer: IC50 (second compound 0.1 µM): 4.65 µM; IC50 (second compound 0.316 µM): 4.7 µM; IC50 (second compound 1 µM): 4.52 µM; IC50 (second compound 3.16 µM): 4.47 µM; IC50 (second compound 10 µM): 3.19 µM; viability, T/C (second compound 0.1 µM, first compound 0.0316 µM): 112%; viability, T/C (second compound 0.1 µM, first compound 0.1 µM): 114%; viability, T/C (second compound 0.1 µM, first compound 0.316 µM): 118%; viability, T/C (second compound 0.1 µM, first compound 1 µM): 121%; viability, T/C (second compound 0.1 µM, first compound 3.16 µM): 74.6%; viability, T/C (second compound 0.1 µM, first compound 10 µM): 1.4%; viability, T/C (second compound 0.316 µM, first compound 0.0316 µM): 104%; viability, T/C (second compound 0.316 µM, first compound 0.1 µM): 109%; viability, T/C (second compound 0.316 µM, first compound 0.316 µM): 110%; viability, T/C (second compound 0.316 µM, first compound 1 µM): 114%; viability, T/C (second compound 0.316 µM, first compound 3.16 µM): 75.4%; viability, T/C (second compound 0.316 µM, first compound 10 µM): 1.76%; viability, T/C (second compound 1 µM, first compound 0.0316 µM): 102%; viability, T/C (second compound 1 µM, first compound 0.1 µM): 106%; viability, T/C (second compound 1 µM, first compound 0.316 µM): 106%; viability, T/C (second compound 1 µM, first compound 1 µM): 108%; viability, T/C (second compound 1 µM, first compound 3.16 µM): 71.8%; viability, T/C (second compound 1 µM, first compound 10 µM): 1.59%; viability, T/C (second compound 3.16 µM, first compound 0.0316 µM): 105%; viability, T/C (second compound 3.16 µM, first compound 0.1 µM): 105%; viability, T/C (second compound 3.16 µM, first compound 0.316 µM): 107%; viability, T/C (second compound 3.16 µM, first compound 1 µM): 102%; viability, T/C (second compound 3.16 µM, first compound 3.16 µM): 70.7%; viability, T/C (second compound 3.16 µM, first compound 10 µM): 1.97%; viability, T/C (second compound 10 µM, first compound 0.0316 µM): 102%; viability, T/C (second compound 10 µM, first compound 0.1 µM): 104%; viability, T/C (second compound 10 µM, first compound 0.316 µM): 105%; viability, T/C (second compound 10 µM, first compound 1 µM): 104%; viability, T/C (second compound 10 µM, first compound 3.16 µM): 50.4%; viability, T/C (second compound 10 µM, first compound 10 µM): 1.78%
